Experimental findings from patent publication US9273067B2, “Pyrazolopyrimidine macrocycles as inhibitors of human immunodeficiency virus replication” (BRISTOL-MYERS SQUIBB COMPANY, priority 2014, dated 2016) are described below.

As usually defined, the EC50 is the concentration giving half of the maximal effect.

In one assay the test system is NL-RLuc virus (recombinant HIV NL4-3 with Renilla Luciferase) in MT-2 cells. Nature of the assay: Inhibition of HIV replication (NL-RLuc virus in MT-2 cells, luciferase readout). It counts as cell-based, human immunodeficiency virus (HIV). Conditions: MT2, 120 h, NL-RLuc virus infecting MT-2 cells, 5 days of incubation, 10% FBS, luciferase quantitation; at least 2 experiments. An excerpt:
Inhibition of HIV Replication:
A recombinant NL-RLuc proviral clone was constructed in which a section of the nef gene from NL4-3 was replaced with the Renilla Luciferase gene. This virus is fully infectious and can undergo multiple cycles of replication in cell culture. In addition, the luciferous reporter provides a simple and easy method for quantitating the extent of virus growth and consequently, the antiviral activity of test compounds. The plasmid pNLRLuc contains the proviral NL-Rluc DNA cloned into pUC 18 at the PvuII site. The NL-RLuc virus was prepared by transfection of 293T cells with the plasmid pNLRLuc. Transfections were performed using the LipofectAMINE PLUS kit from Invitrogen (Carlsbad, Calif.) according to the manufacturer and the virus generated was titered in MT-2 cells. For susceptibility analyses, the titrated virus was used to infect MT-2 cells in the presence of compound, and after 5 days of incubation, cells were processed and quantitated for virus growth by the amount of expressed luciferase. Assay media was RPMI 1640 supplemented with 10% heat inactivated fetal bovine serum (FBS), 100 units/ml penicillin G/100 units/ml streptomycin, 10 mM HEPES buffer pH 7.55 and 2 mM L-glutamine. The results from at least 2 experiments were used to calculate the EC50 values. Luciferase was quantitated using the Dual Luciferase kit from Promega (Madison, Wis.). Susceptibility of viruses to compounds was determined by incubation in the presence of serial dilutions of the compound. The 50% effective concentration (EC50) was calculated by using the exponential form of the median effect equation where (Fa)=1/[1+(ED50/drug conc.)^m] (Johnson V A, Byington R T. Infectivity Assay. In Techniques in HIV Research. ed. Aldovini A, Walker B D. 71-76. New York: Stockton Press. 1990).
In the case of `Cc1nc2cc3nn2c(c1[C@H](OC(C)(C)C)C(=O)O)N1CCC(C)(CC1)OCCCCCCc1ccccc1COC3` [Example 58, (2S)-2-(tert-Butoxy)-2-{4,26-dimethyl-11,25-dioxa-1,5,7,8-tetraazapentacyclo[24.2.2.1^6,^9.0^2,^7.0^13,^18]hentriaconta-2,4,6(31),8,13(18),14,16-heptaen-3-yl}acetic acid], the EC50 is 62 nM.

As for `Cc1nc2cc3nn2c(c1[C@H](OC(C)(C)C)C(=O)O)N1CCC(C)(CC1)OCCCCOC1(CCCCC1)c1cn(nn1)C3` [Example 8, (2S)-2-(tert-Butoxy)-2-{4′,22′-dimethyl-16′,21′-dioxa-1′,5′,7′,8′,11′,12′,13′-heptaazaspiro[cyclohexane-1,15′-pentacyclo[20.2.2.1^6,^9.1^11,^14.0^2,^7]octacosane]-2′,4′,6′(28′),8′,12′,14′(27′)-hexaen-3′-yl}acetic acid], the half-maximal effective concentration (EC50) is 111 nM.

As for `Cc1ccc2c(c1)O[C@@H](C)CCCCOC1(C)CCN(CC1)c1c([C@H](OC(C)(C)C)C(=O)O)c(C)nc3cc(nn13)CO[C@H]2C` (single isomer, unassigned) [Example 55], the EC50 is 7 nM.

As to `Cc1ccc2c(c1)O[C@@H](C)CCCCOC1(C)CCN(CC1)c1c([C@H](OC(C)(C)C)C(=O)O)c(C)nc3cc(nn13)COC2` [Example 38, (2S)-2-(tert-Butoxy)-2-[(20S)-4,16,20,26-tetramethyl-11,19,25-trioxa-1,5,7,8-tetraazapentacyclo[24.2.2.1^6,^9.0^2,^7.0^13,^18]hentriaconta-2,4,6(31),8,13(18),14,16-heptaen-3-yl]acetic acid], the EC50 was found to be 2 nM.

Turning to `Cc1cc2c(cc1Cl)COCc1cc3nc(C)c([C@H](OC(C)(C)C)C(=O)O)c(n3n1)N1CCC(C)(CC1)OCCCC[C@H](C)O2` [Example 69, (2S)-2-(tert-Butoxy)-2-[(20S)-15-chloro-4,16,20,26-tetramethyl-11,19,25-trioxa-1,5,7,8-tetraazapentacyclo[24.2.2.1^6,^9.0^2,^7.0^13,^18]hentriaconta-2,4,6(31),8,13,15,17-heptaen-3-yl]acetic acid], the EC50 stood at 12 nM.

Regarding `Cc1nc2cc3nn2c(c1[C@H](OC(C)(C)C)C(=O)O)N1CCC(C)(CC1)OCC=CCc1ccccc1C(=O)NC3` [Example 14, (2S)-2-(tert-Butoxy)-2-[4,24-dimethyl-12-oxo-23-oxa-1,5,7,8,11-pentaazapentacyclo[22.2.2.1^6,^9.0^2,^7.0^13,^18]nonacosa-2,4,6(29),8,13(18),14,16,20-octaen-3-yl]acetic acid], the EC50 was found to be 45 nM.

As for `Cc1nc2cc3nn2c(c1[C@H](OC(C)(C)C)C(=O)O)N1CCC(C)(CC1)OCCCC[C@H](C)Oc1c(ccc2ccccc12)COC3` [Example 61, (2S)-2-(tert-butoxy)-2-[(24S)-4,24,30-trimethyl-11,23,29-trioxa-1,5,7,8-tetraazahexacyclo[28.2.2.1^6,^9.0^2,^7.0^13,^22.0^16,^21]pentatriaconta-2,4,6(35),8,13(22),14,16(21),17,19-nonaen-3-yl]acetic acid], the concentration giving a half-maximal response (EC50) stood at 5 nM.

With `Cc1nc2cc3nn2c(c1[C@H](OC(C)(C)C)C(=O)O)N1CCC(C)(CC1)OCCCCCc1cc(F)ccc1COC3` [Example 60, (2S)-2-(tert-Butoxy)-2-{16-fluoro-4,25-dimethyl-1,24-dioxa-1,5,7,8-tetraazapentacyclo[23.2.2.1^6,^9.0^2,^7.0^13,^18]triaconta-2,4,6(30),8,13(18),14,16-heptaen-3-yl}acetic acid], the EC50 stood at 13 nM.

Take `Cc1nc2cc3nn2c(c1[C@H](OC(C)(C)C)C(=O)O)N1CCC(C)(CC1)OCCCCOC(C(C)C)c1cn(nn1)C3` (stereo partly drawn) [Example 10, (2S)-2-(tert-Butoxy)-2-[4,22-dimethyl-15-(propan-2-yl)-16,21-dioxa-1,5,7,8,11,12,13-heptaazapentacyclo[20.2.2.1^6,^9.1^11,^14.0^2,^7]octacosa-2,4,6(28),8,12,14(27)-hexaen-3-yl]acetic acid]: the EC50 is 251 nM.

Take `Cc1nc2cc3nn2c(c1[C@H](OC(C)(C)C)C(=O)O)N1CCC(C)(CC1)OCC=CCOCc1cn(nn1)C3` [Example 1, (2S)-2-(tert-Butoxy)-2-[4,22-dimethyl-16,21-dioxa-1,5,7,8,11,12,13-heptaazapentacyclo[20.2.2.1^6,^9.1^11,^14.0^2,^7]octacosa-2,4,6(28),8,12,14(27),18-heptaen-3-yl]acetic acid]: the EC50 is 2490 nM.

On to `Cc1nc2cc3nn2c(c1[C@H](OC(C)(C)C)C(=O)O)N1CCC(C)(CC1)OCCCC[C@H](C)Oc1c(F)cc(F)cc1CCC3` [Example 41, (2S)-2-(tert-Butoxy)-2-[(20S)-15,17-difluoro-4,20,26-trimethyl-19,25-dioxa-1,5,7,8-tetraazapentacyclo[24.2.2.1^6,^9.0^2,^7.0^13,^18]hentriaconta-2,4,6(31),8,13(18),14,16-heptaen-3-yl]acetic acid], for which the EC50 was 10 nM.

For `Cc1nc2cc3nn2c(c1[C@H](OC(C)(C)C)C(=O)O)N1CCC(C)(CC1)OCCCCCc1cccc(c1)COC3` [Example 59, (2S)-2-(tert-Butoxy)-2-{4,24-dimethyl-11,23-dioxa-1,5,7,8-tetraazapentacyclo[22.2.2.1^6,^9.1^13,^17.0^2,^7]triaconta-2,4,6(30),8,13(29),14,16-heptaen-3-yl}acetic acid], the EC50 amounted to 16 nM.

Regarding `Cc1nc2cc3nn2c(c1[C@H](OC(C)(C)C)C(=O)O)N1CCC(C)(CC1)OCC=CC[C@H](C)Oc1cc(F)c(F)cc1COC3` [Example 33, (2S)-2-(tert-Butoxy)-2-[(20S)-15,16-difluoro-4,20,26-trimethyl-11,19,25-trioxa-1,5,7,8-tetraazapentacyclo[24.2.2.1^6,^9.0^2,^7.0^13,^18]hentriaconta-2,4,6(31),8,13,15,17,22-octaen-3-yl]acetic acid], the EC50 came to 6 nM.

As to `Cc1nc2cc3nn2c(c1[C@H](OC(C)(C)C)C(=O)O)N1CCC(C)(CC1)OCCCC[C@H](C)Oc1cc(Cl)ccc1COC3` [Example 35, (2S)-2-(tert-Butoxy)-2-[(20S)-16-chloro-4,20,26-trimethyl-11,19,25-trioxa-1,5,7,8-tetraazapentacyclo[24.2.2.1^6,^9.0^2,^7.0^13,^18]hentriaconta-2,4,6(31),8,13,15,17-heptaen-3-yl]acetic acid], the EC50 worked out at 2 nM.

Still in this assay, the particulars now being: NL-RLuc virus infecting MT-2 cells, 5 days of incubation, 10% FBS, luciferase quantitation; at least 2 experiments; read-out: EC50.
Turning to `Cc1nc2cc3nn2c(c1[C@H](OC(C)(C)C)C(=O)O)N1CCC(C)(CC1)OCC/C=C\c1ccccc1OC3` [Example 20], the EC50 turned out to be 105 nM.

Consider `Cc1nc2cc3nn2c(c1[C@H](OC(C)(C)C)C(=O)O)N1CCC(C)(CC1)O/C=C\CCc1ccccc1OC3` [Example 21, (2S)-2-(tert-Butoxy)-2-[(20Z)-4,23-dimethyl-11,22-dioxa-1,5,7,8-tetraazapentacyclo[21.2.2.1^6,^9.1^2,^7.0^12,^17]octacosa-2,4,6(28),8,12(17),13,15,20-octaen-3-yl]acetic acid], for which the EC50 was 646 nM.

Regarding `Cc1nc2cc3nn2c(c1[C@H](OC(C)(C)C)C(=O)O)N1CCC(C)(CC1)OC=CCCOC1(CCCCC1)c1cn(nn1)C3` [Example 7, (2S)-2-(tert-Butoxy)-2-[4′,22′-dimethyl-16′,21′-dioxa-1′,5′,7′,8′ 11′,12′,13′-heptaazaspiro[cyclohexane-1,15′-pentacyclo[20.2.2.1^6,^9.1^11,^14.0^2,^7]octacosane]-2′,4′,6′(28′),8′,12′,14′(27′),19′-heptaen-3′-yl]acetic acid], the EC50 is 134 nM.

For the compound `Cc1nc2cc3nn2c(c1[C@H](OC(C)(C)C)C(=O)O)N1CCC(C)(CC1)OCCC=COC(C)(C)c1cn(nn1)C3` [Example 4, (2S)-2-(tert-Butoxy)-2-[4,15,15,22-tetramethyl-16,21-dioxa-1,5,7,8,11,12,13-heptaazapentacyclo[20.2.2.1^6,^9.1^11,^14.0^2,^7]octacosa-2,4,6(28),8,12,14(27),17-heptaen-3-yl]acetic acid], the EC50 worked out at 249 nM.

The assay is the same for the next values; noted with them: {}.
As for `Cc1nc2cc3nn2c(c1[C@H](OC(C)(C)C)C(=O)O)N1CCC(C)(CC1)OCCCCOC(C(C)C)c1cn(nn1)C3` (stereo partly drawn) [Example 11, (2S)-2-(tert-Butoxy)-2-[4,22-dimethyl-15-(propan-2-yl)-16,21-dioxa-1,5,7,8,11,12,13-heptaazapentacyclo[20.2.2.1^6,^9.1^11,^14.0^2,^7]octacosa-2,4,6(28),8,12,14(27)-hexaen-3-yl]acetic acid], the concentration for a half-maximal effect (EC50) was 204 nM.

Take `Cc1nc2cc3nn2c(c1[C@H](OC(C)(C)C)C(=O)O)N1CCC(C)(CC1)OCCCCOC(CC(C)C)c1cn(nn1)C3` (stereo partly drawn) [Example 13, (2S)-2-(tert-Butoxy)-2-[4,22-dimethyl-15-(2-methylpropyl)-16,21-dioxa-1,5,7,8,11,12,13-heptaazapentacyclo[20.2.2.1^6,^9.1^11,^14.0^2,^7]octacosa-2,4,6(28),8,12,14(27)-hexaen-3-yl]acetic acid]: the EC50 amounted to 124 nM.
